Here are results for 1 compound from PMC8060220, “Comparative study of hyperpure chlorine dioxide with two other irrigants regarding the viability of periodontal ligament stem cells” (Clinical Oral Investigations, 2020).

By IC50 is commonly meant the concentration at which inhibition is half-maximal. Low values mean higher potency, high ones lower potency.

In series [1] the test system is PDLSCs. The series can be described thus: Impedimetry (xCELLigence), concentration-response study. In kind it is cell-based, human. The following applies: 48-h incubation, 0.5 normalized CI. The protocol: (§1) To evaluate the concentration-dependent effects of the 3 antiseptic agents (H2O2, CHX, and ClO2), 9 different dilutions of each agent were prepared with growth medium (from 3.91 × 10^−6 to 10^−3 M, by 1:2 dilution in each step). As ClO2 is photosensitive and volatile, its dilution series were made in dark Eppendorf tubes which were opened only for the inevitably required time. After a 48-h-long incubation, cell viability was assessed by WST-1 test and impedimetric measurement, respectively (see below). The […] (IC50) values corresponding to the 50% viable cells or 0.5 normalized CI were determined from the concentration-effect curves in the case of the two methods, respectively.
The effect of irrigative agents on the viability of the PDLSC cells was assessed using the xCELLigence SP System (Roche Applied Science, Indianapolis, IN, USA), which monitors the cellular events by measuring electrical impedance across interdigitating gold microelectrodes integrated on the bottom of tissue culture plates (E-plates). The detected impedance is influenced by the viability and morphology of the attached cells on the surface of the electrodes. The presence of cells due to their insulating plasma membranes constrain the electrical current and lead to an increase in the electrode impedance. The impedance depends on the number of the attached cells and on the dimensional change of the attached cells on the electrodes. More cells attached to the electrode or spreading cause a larger increase in the impedance. The change in impedances represented as “cell index” (CI) which is a relative and dimensionless value. Briefly, the experimental protocol was as follows: to register the background value, 100 μL of culture medium was added to each well and impedance was recorded for 1 h to gain constant background curves of impedance. […] The viability of the PDLSC was monitored for 96 h. Normalized impedance to the control calculated by the integrated software (RTCA 1.2—Roche Applied Science, Indianapolis, IN, USA) was used for the statistical evaluation. […]

Series [2] deals with Escherichia coli. The arrangement: method as in ref 1 (supplement). The following applies: 1 µm diameter cylindrical bacterium; c0 = 300 mg/L (4.45 mM); formula (C), pig bladder parameters; ref 1 (supplement); cited from earlier work.
In series [3] the test system is PDLSCs. The series can be described thus: WST-1 test, concentration-response study. In kind it is cell-based, human. The following applies: 48-h incubation, 50% viable cells. The protocol:
as §1
This assay is dedicated to measuring the viability of PDLSCs. In 96-well culture plates, 10,000 PDLSCs were seeded. After 24 h, samples were treated with the irrigative compounds, and final concentrations were H2O2 0.3%, CHX 0.02%, and ClO2 0.0025% and 0.00025% solutions in 4-4 parallel wells. After 10 min, all the irrigative agents were removed and the samples were washed three times with normal growth medium, simulating the diluting effect of saliva in the oral cavity during the periodontal treatments. Forty-eight hours after the treatments, the cell viability was measured by the cell proliferation reagent containing water-soluble tetrazolium salt, WST-1 [2-(4-Iodophenyl)-3-(4-nitrophenyl)-5-(2,4-disulfophenyl)-2H-tetrazolium] (Roche). This assay determines mitochondrial dehydrogenase enzyme activity resulting water-soluble cleavage product. The WST-1 reagent was used at 1:20 dilution and incubation time was 2 h at 37 °C. Absorbance was measured at 450 nm with a reference wavelength of 655 nm by a microplate reader (BIO-RAD Model 3550). Background control values were determined in wells seeded with no cells. Each value represents the average of minimum 3 parallel measurements.
For orientation: Formazan colour is commonly taken as a measure of viable cells.

The test system of series [4] is CD90. The series can be described thus: Immunocytochemistry of stem cell marker CD90. In kind it is cell-based, human. The following applies: 48 h. The method, then: PDLSC cultures grown in 8 chamber slides (Nunc Lab-Tek) were treated with the antiseptic agents similar to the viability studies. After 48 h, treated and untreated cell cultures were fixed in 4% PFA in PBS for 20 min at room temperature (RT). To block non-specific binding, 5% goat serum in PBS was applied for 1 h at RT. Then cell cultures were incubated with the primary antibodies diluted 1:100 with 2.5% goat serum in PBS overnight at 4 °C. The applied primary antibodies were the following: anti-STRO-1 antibody (type mouse IgM)—a generous gift from Prof. Richard Oreffo (University of Southampton, UK); anti-CD90 (Thy-1; type mouse IgG) and the anti-CD105 (endoglin; type mouse IgM) antibodies purchased from Calbiochem and Santa Cruz Biotechnology, respectively. Goat anti-mouse IgM and IgG type secondary antibodies conjugated with Alexa Fluor 488 (Molecular Probes) were diluted with 2.5% goat serum in PBS in 1:2000 and 1:1000 respectively. The incubation time was 60 min at RT. Finally, the walls of the chambers were removed and the slides were mounted with ProLong Gold antifade reagent with DAPI (Molecular Probes). Immunocytochemically labeled cell cultures were investigated under a fluorescence microscope (Nikon Eclipse E600), the photos were taken by a Retiga 2000R digital CCD camera (QImaging), and analyzed by the Image Pro software (Media Cybernetics). Free macros for automated fluorescence analysis of image processing software FIJI/ImageJ were applied to evaluate immunostaining of stem cell markers. Each test point represents 3 × 3 reading of the samples.

Details of series [5]: method as in ref S1. The following applies: ref S1, cited from earlier work.
For series [6], the system named is bacteria. Details: method as in PMID 24060558, PMID 23529300. The following applies: direct antibacterial and biofilm-dissolving effects; cited from earlier work.
Series [7] has as its system human gingival fibroblasts. The arrangement: method as in PMID 1962413. The following applies: cited from earlier work.

Marks after values point to notes of the source that are not given here.

For the compound `[O][Cl+][O-]` [ClO2, chlorine dioxide], the IC50 in series [1] is 795 µM; in series [3], 638 µM. Besides, in series [2], the “killing time (TKILL)” value is recorded as 4.4 ms. Moreover, the “CD90 Fluo. int. [%] Control = 100%” value is reported as 159.23** % in series [4] (P3, 0.00025% (1/10) ClO2); 83.07% in series [4] (P3, 0.02% CHX, 0.0025% (1/1) ClO2); 54.92*** % in series [4] (P7, 0.00025% (1/10) ClO2); 97.74% in series [4] (P7, 0.02% CHX, 0.0025% (1/1) ClO2). Further, in series [5] (cellular pig bladder tissue), the “diffusion coefficient D(pig bladder)” value is on record as 1.8×10^–6 cm^2s^–1. Further, the “diffusion coefficient D(gelatine)” value in series [5] (unstructured gelatine gel medium) is on record as 2.4×10^–6 cm^2s^–1. In series [6], the “times lower concentration of ClO2 needed to evoke the same or even stronger effect than that of CHX” value is “approximately 10 times”. The LD50 in series [7] (human gingival fibroblasts) was 0.16 mM. Also, the apoptotic responses result in series [7] (low concentrations of ClO2) is recorded as “did not induce apoptotic responses”.
